Results: patent US12290575B2, “Fluorescent compound comprising a fluorophore conjugated to a pH-triggered polypeptide” (UNIVERSITY OF RHODE ISLAND BOARD OF TRUSTEES, priority 2016, dated 2025)
Where a SMILES comes first, the peptide text is derived from it. Where no end group is shown, it is not given here. The star is where a group is joined. X1 = CC1(C)C(/C=C/C=C/C=C/C=C2/N(CCCCCC(=O)NCCN3C(=O)CC(*)C3=O)c3ccc4ccccc4c3C2(C)C)=[N+](CCCCS(=O)(=O)[O-])c2ccc3ccccc3c21; ICG maleimide = indocyanine green maleimide

Key:
[1] = residue X in AcWL-X-LL, relative to virtual glycine; Arg and Lys from pH 1 data; cited from earlier work
[2] = cited from earlier work
[3] = high dose of 5 mg/kg of body weight; cited from earlier work
[4] = current use; cited from earlier work
[5] = Fluorescence imaging of blood flow in mice (ear, leg, blood samples); type: in vivo, nude mice; details: for fluorescent signal in blood samples: blood withdrawn 5-120 min after IV; for imaging of blood vessels (ear, leg): 100 μL of 40 μM IV, 5, 30, 60, 90, 120 min
Method: Adult female nude mice (Envigo), 20 g in body mass were used in the study. Fluorescent constructs were given as a single tail vein injection in amounts of 100 μL of 40 μM in PBS. Imaging of mouse ear and leg was performed at 5, 30, 60, 90 and 120 min after construct administration. At 5, 30, 60, 90 and 120 min after construct administration 5 μL of blood was withdrawn from tail (and mixed with 5 μL of anticoagulating solution to preserve blood) while animal was under anesthesia. Mice were euthanized immediately after last imaging point (120 min). Blood collected from all animals was deposited on the glass slide, dried and imaged. Imaging was performed using Novadaq clinical imaging instrument. Autofluorescence was established by imaging mouse with no injection of fluorescent constructs (the level of autofluorescence signal was insignificant compared to the signal after the constructs administration).

4T1 tumors = experiment: NIR fluorescence imaging of 4T1 tumors in mice after IV or IP injection; type: in vivo, BALB/cAnNHsd mice; details: 16 h
Method: Adult female nude mice and female BALB/cAnNHsd mice (Envigo), 20-25 g in body mass were used in the study. Mouse mammary cancer 4T1 cells were subcutaneously implanted in the right flank (8×10^5 cells/0.1 mL/flank) of adult female BALB/cAnNHsd mice. Rat bladder cancer AY27 cells were subcutaneously implanted in the right flank (8×10^5 cells/0.1 mL/flank) of adult female nude mice. When tumors reached approximately 5-6 mm in diameter, single tail vein injection or single intraperitoneal injection of fluorophore-pHLIP® solutions in PBS were performed. Fluorescent constructs were used in amounts of 100 μL of 40 μM or 100 μL of 20 μM, or 100 μL of 10 μM, or 100 μL of 5 μM. Imaging of mouse was performed at 16 hours after constructs administration. Skin was removed from the tumor site just before imaging while animal was under gas anesthesia, and mice were euthanized immediately after imaging. Tumor, kidney and liver were harvested, imaged and used for histopathological analysis. Imaging was performed using Stryker clinical imaging instrument. Autofluorescence was established by imaging mouse with no injection of fluorescent constructs (the level of autofluorescence signal was insignificant compared to the signal after the constructs administration).

[6] = system: urothelial carcinoma in human bladder specimens; experiment: Ex vivo NIR fluorescence imaging of human bladder specimens after instillation
Method: 22 urothelial carcinoma patients that were scheduled for radical cystectomy were selected over a twelve month period. After radical cystectomy, bladder specimens were immediately removed and irrigated 3 times for 5 min via catheter with non-buffered saline and instilled and incubated with 80 ml of 8 μM or 32.8 μg/ml (unless otherwise is stated, see notes to Table 8) of ICG-Var3 construct or ICG-Cys in PBS pH 7.4 containing 10 mM D-glucose for 60 minutes. Then, the unbound constructs were removed by rinsing with 80 ml of saline solution 3-5 times, the bladder was irrigated thoroughly with buffered saline and opened using a Y incision on the anterior wall. Using a da Vinci Si near-infrared fluorescence imaging system (Firefly®), ex vivo fluorescent and white light imaging of the entire bladder and its parts was performed. The fluorescent spots were marked and standard pathological analysis was carried out to explore the correlation between appearance of fluorescent signal and cancer lesions.
The specimen was sectioned and submitted after 24 hour fixation in 10% phosphate-buffered formalin according to the standard institutional grossing manual, with emphasis on the marked areas of the bladder. The sections were processed for routine histology into paraffin-embedded blocks. […]
Statistical parameters were calculated according to the following equations: […]

N[C@@H](CO)C(=O)O [Ser, Serine]
ΔGX^cor (solvation free energy of the side chain) [1]: +0.69 kcal/mol

N=C(N)NCCC[C@H](N)C(=O)O [Arg, Arginine]
ΔGX^cor (solvation free energy of the side chain) [1]: -0.66 kcal/mol

CC1(C)C(/C=C/C=C/C=C/C=C2\N(CCCCS(=O)(=O)[O-])c3ccc4ccccc4c3C2(C)C)=[N+](CCCCS(=O)(=O)[O-])c2ccc3ccccc3c21.[Na+] [ICG, indocyanine green]
blood clearance ([2]; half lifetime is just few minutes): fast blood clearance
metabolites ([2]; in vivo): no known metabolites
time after which it binds to the regional lymph nodes ([2]; injected outside blood vessels): 1 to 2 h
time of appearing unconjugated in the bile after injection ([2]; intravenous injection, depends on liver vascularization and function): about 8 min
toxic effects [3]: No significant toxic effects
imaging time used for free ICG [4]: 2 to 5 min

CC[C@H](C)[C@H](NC(=O)[C@@H]1CCCN1C(=O)[C@H](CC(N)=O)NC(=O)[C@H](CCC(N)=O)NC(=O)[C@H](CCC(=O)O)NC(=O)[C@H](CSC1CC(=O)N(CCNC(=O)CCCCCN2/C(=C/C=C/C=C/C=C/C3=[N+](CCCCS(=O)(=O)[O-])c4ccc5ccccc5c4C3(C)C)C(C)(C)c3c2ccc2ccccc32)C1=O)NC(=O)[C@H](C)N)C(=O)N[C@@H](Cc1ccc(O)cc1)C(=O)N[C@@H](Cc1c[nH]c2ccccc12)C(=O)N[C@@H](C)C(=O)N[C@@H](CCCNC(=N)N)C(=O)N[C@@H](Cc1ccc(O)cc1)C(=O)N[C@@H](C)C(=O)N[C@@H](CC(N)=O)C(=O)N[C@@H](Cc1c[nH]c2ccccc12)C(=O)N[C@@H](CC(C)C)C(=O)N[C@@H](Cc1ccccc1)C(=O)N[C@H](C(=O)N[C@H](C(=O)N1CCC[C@H]1C(=O)N[C@@H](CC(C)C)C(=O)N[C@@H](CC(C)C)C(=O)N[C@@H](CC(C)C)C(=O)N[C@@H](CC(C)C)C(=O)N[C@@H](CC(N)=O)C(=O)N[C@@H](CC(C)C)C(=O)N[C@@H](C)C(=O)N[C@@H](CC(C)C)C(=O)N[C@@H](CC(C)C)C(=O)N[C@H](C(=O)N[C@@H](CC(=O)O)C(=O)N[C@@H](C)C(=O)N[C@@H](CC(=O)O)C(=O)N[C@@H](CCC(=O)O)C(=O)NCC(=O)N[C@H](C(=O)O)[C@@H](C)O)C(C)C)[C@@H](C)O)[C@@H](C)O (stereo partly drawn) [ICG-NpHLIP®] (H-AC(X1)EQNPIYWARYANWLFTTPLLLLNLALLVDADEGT-OH)
fluorescent signal in blood samples [5]: significantly reduced signal

C[C@@H](O)[C@H](N)C(=O)O [Thr, Threonine]
ΔGX^cor (solvation free energy of the side chain) [1]: +0.90 kcal/mol

ICG-Hum pHLIP®: ICG maleimide conjugated to the Cys of Hum pHLIP® GCDNNEGFFATLGGEIPLWSDVVLAIEG (SEQ ID NO: 446) (GC(ICG maleimide)DNNEGFFATLGGEIPLWSDVVLAIEG)
imaging of blood vessels (ear, leg) [5]: slow in reaching the best imagibility condition and was fast in decaying

CC[C@H](C)[C@H](NC(=O)[C@@H]1CCCN1C(=O)[C@H](CC(N)=O)NC(=O)[C@H](CCC(N)=O)NC(=O)[C@H](CCC(=O)O)NC(=O)[C@H](CSC1CC(=O)N(CCNC(=O)CCCCCN2/C(=C/C=C/C=C/C=C/C3=[N+](CCCCS(=O)(=O)[O-])c4ccc5ccccc5c4C3(C)C)C(C)(C)c3c2ccc2ccccc32)C1=O)NC(=O)[C@H](C)N)C(=O)N[C@@H](Cc1ccc(O)cc1)C(=O)N[C@@H](Cc1c[nH]c2ccccc12)C(=O)N[C@@H](C)C(=O)N[C@@H](CCCNC(=N)N)C(=O)N[C@@H](Cc1ccc(O)cc1)C(=O)N[C@@H](C)C(=O)N[C@@H](CC(=O)O)C(=O)N[C@@H](Cc1c[nH]c2ccccc12)C(=O)N[C@@H](CC(C)C)C(=O)N[C@@H](Cc1ccccc1)C(=O)N[C@H](C(=O)N[C@H](C(=O)N1CCC[C@H]1C(=O)N[C@@H](CC(C)C)C(=O)N[C@@H](CC(C)C)C(=O)N[C@@H](CC(C)C)C(=O)N[C@@H](CC(C)C)C(=O)N[C@@H](CC(=O)O)C(=O)N[C@@H](CC(C)C)C(=O)N[C@@H](C)C(=O)N[C@@H](CC(C)C)C(=O)N[C@@H](CC(C)C)C(=O)N[C@H](C(=O)N[C@@H](CC(=O)O)C(=O)N[C@@H](C)C(=O)N[C@@H](CC(=O)O)C(=O)N[C@@H](CCC(=O)O)C(=O)NCC(=O)N[C@H](C(=O)O)[C@@H](C)O)C(C)C)[C@@H](C)O)[C@@H](C)O (stereo partly drawn) [ICG-WT pHLIP®]
fluorescent signal in blood samples [5]: persistence of strong fluorescent signal within 2 hours

CC(C)C[C@H](NC(=O)[C@H](Cc1ccc(O)cc1)NC(=O)[C@H](C)NC(=O)[C@H](CCCNC(=N)N)NC(=O)[C@H](Cc1c[nH]c2ccccc12)NC(=O)[C@@H]1CCCN1C(=O)[C@H](CC(N)=O)NC(=O)[C@H](CCC(N)=O)NC(=O)[C@H](CC(=O)O)NC(=O)[C@H](CC(=O)O)NC(=O)[C@H](CSC1CC(=O)N(CCNC(=O)CCCCCN2/C(=C/C=C/C=C/C=C/C3=[N+](CCCCS(=O)(=O)[O-])c4ccc5ccccc5c4C3(C)C)C(C)(C)c3c2ccc2ccccc32)C1=O)NC(=O)[C@H](C)N)C(=O)N[C@@H](CC(=O)O)C(=O)N[C@@H](CC(C)C)C(=O)N[C@@H](CC(C)C)C(=O)N[C@@H](Cc1ccccc1)C(=O)N1CCC[C@H]1C(=O)N[C@H](C(=O)N[C@@H](CC(=O)O)C(=O)N[C@H](C(=O)N[C@@H](CC(C)C)C(=O)N[C@@H](CC(C)C)C(=O)N[C@@H](CC(C)C)C(=O)N[C@@H](CC(=O)O)C(=O)N[C@@H](CC(C)C)C(=O)N[C@@H](CC(C)C)C(=O)N[C@@H](Cc1c[nH]c2ccccc12)C(=O)N[C@@H](C)C(=O)O)[C@@H](C)O)[C@@H](C)O (stereo partly drawn) [ICG-Var3] (H-AC(X1)DDQNPWRAYLDLLFPTDTLLLDLLWA-OH)
fluorescent signal in tumor relative to kidney and liver (4T1 tumors): signal in tumor was higher than in kidney and similar or slightly less than in liver
adverse morphological findings in specimens after incubation [6]: did not show any adverse morphological findings
fluorescent signal in blood samples [5]: persistence of strong fluorescent signal within 2 hours

C[C@H](N)C(=O)O [Ala, Alanine]
ΔGX^cor (solvation free energy of the side chain) [1]: +0.65 kcal/mol

IR800-WT pHLIP®: IR800 maleimide conjugated to the Cys of WT pHLIP® (SEQ ID NO: 444) (AC(IR800 maleimide)EQNPIYWARYADWLFTTPLLLLDLALLVDADEGT)
imaging of blood vessels (ear, leg) [5]: better in imaging of blood vessels, however not nearly as good as ICG-WT and ICG-Var3 pHLIP®s

NC(=O)C[C@H](N)C(=O)O [Asn, Asparagine]
ΔGX^cor (solvation free energy of the side chain) [1]: +0.30 kcal/mol
